Test results reported in patent US8119671B2, “Isoxazoline-substituted benzamide compound and pest control agent” (Nissan Chemical Industries, Ltd., priority 2007, dated 2012).

Columns and labels:
Format in all cases: in vivo
Tetranychus urticae = assay: Test Example 14: Mortality Test for Tetranychus urticae; details: 144 h
Method: (§1) In a styrol cup having an inner diameter of 7 cm, a wet filtration paper was laid, and on the paper, a leaf of kidney bean cut out so as to have the same diameter as the inner diameter of the cup was laid, followed by inoculating 10 larvae of Tetranychus urticae per leaf to the leaf. A 10% emulsifiable concentrate of the compound of the present invention (depending on the type of the compound, a 10% wettable powder was subjected to the test) was diluted with water containing a spreader to prepare a drug solution in a concentration of 500 ppm. The drug solution was dusted using a rotary dusting tower in an amount of 2.5 mL per styrol cup and the cup was capped and stored in a thermostat room of 25° C. The number of killed larvae after 6 days was measured and the mortality was calculated from the same calculation formula as that in Test Example 1. Here, the test was carried out with two replications.

[1] = system: Frankliniella occidentalis; assay: Test Example 5: Mortality Test for Frankliniella occidentalis; details: 48 h
Method: as §1, with “inoculating ten 1 instar” for “inoculating 10”, “of Frankliniella occidentalis” for “of Tetranychus urticae”, “after 2” for “after 6”

Ctenocephalides felis = assay: Test Example 15: Mortality Test for Cat Flea; details: 96 h
Method: To the bottom surface and the side surface of a petri dish having an inner diameter of 5.3 cm, 400 μL of an acetone solution in which 40 mg of the compound of the present invention was dissolved in 40 mL of acetone (concentration: 1,000 ppm) was applied and the acetone was volatilized to form a thin film of the compound of the present invention on the inner wall of the petri dish. The inner wall of the used petri dish has an area of 40 cm^2, so that the amount of the applied drug is 1 μg/cm^2. In the petri dish, 10 Ctenocephalides felis imagines (male and female were mixed) were released and the petri dish was capped and stored in a thermostat room of 25° C. The number of killed larvae after 4 days was measured and the mortality was calculated from the same calculation formula as that in Test Example 1. Here, the test was carried out on the single sample.

Eysarcoris lewisi = assay: Test Example 7: Mortality Test for Eysarcoris lewisi; details: in Oryza sativa, 48 h
Method: A 10% emulsifiable concentrate of the compound of the present invention (depending on the type of the compound, a 10% wettable powder was subjected to the test) was diluted with water containing a spreader to prepare a drug solution in a concentration of 500 ppm. In this drug solution, a leaf sheath of Oryza sativa was immersed for about 10 seconds and was air-dried and then put into a test tube. In the test tube, five 1 instar larvae of Eysarcoris lewisi per one test tube were released and the test tube was capped with a sponge and stored in a thermostat room of 25° C. The number of killed larvae after 2 days was measured and the mortality was calculated from the same calculation formula as that in Test Example 1. Here, the test was carried out with two replications.

Spodoptera litura = assay: Test Example 2: Mortality Test for Spodoptera litura; details: 144 h
Method: (§2) A 10% emulsifiable concentrate of the compound of the present invention (depending on the type of the compound, a 10% wettable powder was subjected to the test) was diluted with water containing a spreader to prepare a drug solution in a concentration of 10 ppm. In this drug solution, a leaf of canarium album was immersed for about 10 seconds and was air-dried and then put into a petri dish. In the petri dish, five 2 instar larvae of Spodoptera litura per petri dish were released and the petri dish was capped and stored in a thermostat room of 25° C. The number of killed larvae after 6 days was measured and the mortality was calculated from the same calculation formula as that in Test Example 1. Here, the test was carried out with two replications.

Bemisia argentifolii = assay: Test Example 9: Mortality Test for Bemisia argentifolii; details: in Solanum lycopersicum, 144 h
Method: In a styrol cup having an inner diameter of 7 cm, a wet filtration paper was laid, and on the paper, a cut-out leaf of tomato on which Bemisia argentifolii laid eggs (10 eggs/leaf) was laid. A 10% emulsifiable concentrate of the compound of the present invention (depending on the type of the compound, a 10% wettable powder was subjected to the test) was diluted with water containing a spreader to prepare a drug solution in a concentration of 500 ppm. The drug solution was dusted using a rotary dusting tower in an amount of 2.5 mL per styrol cup and the cup was capped and stored in a thermostat room of 25° C. The number of killed larvae after 6 days was measured and the mortality was calculated from the same calculation formula as that in Test Example 1. Here, the test was carried out with two replications.

Plutella xylostella = assay: Test Example 1: Mortality Test for Plutella xylostella; details: 144 h
Method: as §2, with “Plutella xylostella” for “Spodoptera litura”, “following” for “same”, “formula: Mortality (%)=(number of killed larvae/number of released larvae)×100.” for “formula as that in Test Example 1.”

Homona magnanima = assay: Test Example 3: Mortality Test for Homona magnanima; details: 144 h
Method: as §2, with “of 100” for “of 10”, “of Homona magnanima” for “of Spodoptera litura”

Aulacophora femoralis = assay: Test Example 12: Mortality Test for Aulacophora femoralis; details: in Cucumis sativus, 144 h
Method: as §2, with “of 500” for “of 10”, “of cucumber” for “of canarium album”, “of Aulacophora femoralis” for “of Spodoptera litura”

Cc1cc(C2=NOC(c3cc(Cl)cc(Cl)c3)(C(F)(F)F)C2)ccc1C(=O)NC1(c2ccccn2)CC1 (stereo not drawn) [No. 1-007, 4-[5-(3,5-Dichlorophenyl)-5-trifluoromethyl-4,5-dihydroisoxazole-3-yl]-2-methyl-N-[1-(2-pyridyl)cyclopropyl]benzamide]
≥ 80%: mortality at 500 ppm (Tetranychus urticae) | mortality at 500 ppm [1] | mortality at 1000 ppm, 1 µg/cm2 (Ctenocephalides felis) | mortality at 500 ppm (Eysarcoris lewisi) | mortality at 10 ppm (Spodoptera litura) | mortality at 500 ppm (Bemisia argentifolii) | mortality at 10 ppm (Plutella xylostella) | mortality at 100 ppm (Homona magnanima) | mortality at 500 ppm (Aulacophora femoralis)
